Experimental data: patent publication US9717737B2, “Vacuolin-1 as an inhibitor of autophagy and endosomal trafficking and the use thereof for inhibiting tumor progression” (The University of Hong Kong, priority 2014, dated 2017)

Columns and labels:
[1] = system: HeLa cells; assay: Western blot analyses of LC3 and p62; format: cell-based
Protocol: (§1) Western blot and Immunofluorescence staining analyses—Both assays were performed as described previously (Lu et al., 2013).

[2] = system: HeLa cells; assay: Immunofluorescence staining of GFP-LC3 puncta and RFP-Lamp1; format: cell-based; conditions: 1 μM
Protocol: as §1

[3] = system: HeLa cells; assay: Transmission electron microscopy of treated cells; format: cell-based
Protocol: Cell preparation for transmission electron microscopy (TEM)—Cell preparation for TEM was performed as described previously (Mi et al., 2007).

[4] = system: HeLa, PC3, HepG2, MCF7, and A549 cells; format: cell-based
Protocol: MTT cell proliferation assay—Cells were treated in four replicates and seeded into 96-well plate. Following drug treatment, MTT solution of 20 μl for every 100 μl medium was added to wells and incubated for 2 hours, followed by the addition of 150 μL of the DMSO solution to each well. The final reaction product, a purple formazan solution, was detected by a microplate reader (Techan infinite M200) for absorbance at a wavelength of 570 nm and a reference wavelength of 630 nm.

[5] = system: HeLa cells; assay: GPN induced lysosomal Ca2+ release in Fura-2 loaded cells; format: cell-based; conditions: 1 μM pretreatment 5 hours, GPN 200 μM
Protocol: Intracellular Ca^2+ measurement—Cells were cultured in 24-well plates at the density of 7×10^4 cells/well in regular medium overnight and were labeled with 4 μM Fura-2 AM (Invitrogen) in regular HMSS at room temperature for 30 min. The cells were then washed with calcium-free HMSS containing 2 mM EGTA three times and incubated in the presence or absence of vacuolin-1 at room temperature for another 10 min. Cells were put on the stage of an Olympus inverted epifluorescence microscope and visualized using a 20× objective. Fluorescence images were obtained by alternate excitation at 340 nm and 380 nm with emission set at 510 nm. Images were collected by a CCD camera every 3 or 6 seconds and analyzed by Cell R imaging software.
Since lysosome is also a major intracellular Ca^2+ pool, and Ca^2+ and protons are tightly coupled in lysosomes (Morgan et al., 2011), it was also assessed whether vacuolin-1 treatment affects the lysosomal Ca^2+ content. Treatment of cells with glycyl-1-phenylalanine 2-naphthylamide (GPN) selectively disrupts the lysosomal membrane (Jadot et al., 2001), thereby releasing the lysosomal Ca^2+ (Srinivas et al., 2002).

[6] = system: HeLa cells; assay: Cathepsin L processing (western blot); format: cell-based; conditions: 1 μM
[7] = target: T1, Rab5 (Homo sapiens, UniProt P20339); assay: GST-tagged Rabaptin5 pull-down assay for active Rab5; format: cell-based; conditions: HeLa cells, 1 μM
T1 construct: results of a GST-tagged Rabaptin5 pull-down assay in HeLa cells showing active Rab5 in cells treated with vacuolin-1 (1 μM); endogenous in cells; host or cells: HeLa cells
T1 sequence (P20339 1-215): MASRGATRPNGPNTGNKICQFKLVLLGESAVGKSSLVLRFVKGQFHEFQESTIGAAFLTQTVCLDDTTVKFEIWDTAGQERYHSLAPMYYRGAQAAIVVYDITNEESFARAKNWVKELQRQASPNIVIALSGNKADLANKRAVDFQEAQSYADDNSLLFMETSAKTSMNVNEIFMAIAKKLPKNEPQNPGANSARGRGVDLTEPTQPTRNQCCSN
Protocol: Glutathione S-Transferase (GST) Pull-Down Assay—Cells were collected and lysed in an ice-cold EBC lysis buffer described previously. Lysates were clarified by centrifugation at 13,000 g for 10 min at 4° C., and equal amount of protein (500 μg) from each supernatant was incubated with 30 μl of GST-RSBD bound to the 30 μl glutathione—Sepharose beads for 1 h at 4° C. on a rotating mixer. The beads was subsequently washed and resuspended in the standard SDS-sample buffer, boiled and subjected to SDS-PAGE (15% gel), followed by immunoblot analysis with the anti-Rab5 mAb.

[8] = system: CNE-1 and HONE-1 cells; format: cell-based, human
Protocol: (§2) Although CQ has already been applied to treat a wide spectrum of human cancers, CQ induces ocular or renal toxicity and easily triggers drug resistance (Kimura et al., 2013). […] We first investigated the anti-tumor effects of vacuolin-1 in two nasopharyngeal carcinoma cell lines, CNE-1 and HONE-1. […] Alternatively, colony formation assay was performed to assess whether vacuolin-1 affects the ability of a single tumor cell to grow into a colony. […] We subsequently performed wound healing assay to assess whether vacuolin-1 affects the migration of tumor cells. […] Obviously, vacuolin-1 is an efficient anti-tumor agent in vitro.

[9] = system: CNE-1 and HONE-1 cells; assay: Migration and invasiveness of nasopharyngeal carcinoma cells; format: cell-based, human
Protocol: as §2

[10] = system: human lung cancer stem cells (hLCSCs); assay: Autophagy inhibition in lung cancer stem cells; format: cell-based
Text: (§3) Cancer stem cells (CSCs), a subpopulation of cells within tumors, actually drive tumor growth and recurrence. CSCs are resistant to many current cancer treatments, including chemo- and radiation therapy, thus they can survive these therapy to regenerate new tumors. […] Therefore, it is of great interest to assess the anti-tumor effects of vacuolin-1 on CSCs.

[11] = system: human lung cancer stem cells (hLCSCs); assay: Cell proliferation of lung cancer stem cells; format: cell-based
Text: as §3

[12] = system: human lung cancer stem cells (hLCSCs); assay: Colony formation of hLCSCs; format: cell-based; conditions: >10 μM
Text: as §3

[13] = system: human lung cancer stem cells (hLCSCs); assay: Migration of hLCSCs; format: cell-based; conditions: >10 μM
Text: as §3

[14] = Acute toxicity in mice; format: in vivo; conditions: young adult mice
Protocol: We first assessed the ability of vacuolin-1 to suppress LCSC tumor xenograft in BALB/c nude mice. Briefly, 1×10^4 lung cancer stem cells (LCSCs, 3rd generation) were suspended in Matrigel (BD Biosciences) at a ratio of 1:1, and 200 iL of cells was subcutaneously injected into the back of nude mice. The tumor volume was measured every five days after injection and calculated from the formula: length×width×depth×π/6. Mice were removed from the study when their tumor volumes exceed 2000 mm^3 (FIG. 18A). […] Also, we tested the acute toxicity of vacuolin-1 in mice.

[15] = system: human cancer cell lines; assay: Combination with chemotherapy drugs in human cancer cell lines (FIG. 13); format: cell-based

## Ic1cccc(/C=N/Nc2nc(N3CCOCC3)nc(N(c3ccccc3)c3ccccc3)n2)c1 [vacuolin-1]
[1]; 3 hours after removal from the medium, HeLa cells, 1 μM
  fusion block between autophagosomes and lysosomes after removal of compound (reversibility): completely relieved
[1]; HeLa and PC3 cells, 6 hours, LC3 and p62 western blot
  potency in suppressing autophagy relative to CQ: at least ten times more potent than CQ
[1]; HeLa cells, vacuolin-1 1 μM
  lipidated LC3-II level: markedly increased
  p62 level: accumulated
[2]
  GFP-LC3 puncta: greatly increased
  co-localization of GFP-LC3 puncta with Lamp1: did not co-localize with Lamp1
[3]; HeLa cells in normal culture conditions, 1 μM
  autophagic vacuoles under the electron microscope: large numbers of autophagic vacuoles were observed
[3]; HeLa cells, versus control
  lysosome morphology in electron micrograph: enlarged lysosomes
[4]
  cell toxicity (MTT cell viability): much less cell toxicity than CQ
[5]
  GPN induced lysosomal Ca2+ release: significantly lowered
[6]
  levels of immature form of cathepsin L: markedly increase
  processing of cathepsin L into its mature form: not affected
[7]
  Rab5 activation (Rab5-GTP pull-down): markedly activated Rab5
[8]
  cell toxicity, treatment alone: little cell toxicity
  synergistic effects on inhibiting tumor cell proliferation in combination with taxol, 5-FU, temsirolimus: almost no synergistic effects
[9]; FIG. 16D
  migration: markedly inhibited
[9]; FIG. 16E
  invasiveness: markedly inhibited
[10]
  autophagy inhibition potency in hLCSCs relative to other tumor cell lines (times less potent): 10 times
[11]
  cell proliferation of hLCSCs: did not affect the cell proliferation
[12]
  colony formation of hLCSCs: almost completely inhibited
[13]
  migration of hLCSCs: almost completely inhibited
[14]; intraperitoneal 250 mg/kg, after two weeks
  activity and weight gain compared to control: normal activity and weight gain
[14]; intraperitoneal injection 250 mg/kg
  acute toxicity: little acute toxicity
[15]; FIG. 13B
  colony formation efficiency of cancer cells, combination with chemotherapy drugs: greatly decreases
[15]; human cancer cell lines, FIG. 13A
  anti-tumor effects of chemotherapy drugs in combination: potently enhances
